The text below walks through data of patent publication US20230201382A1, “RADIOLIGANDS FOR MYELIN” (CASE WESTERN RESERVE UNIVERSITY, priority 2016, published 2023).

The test system of series [1] is myelin. The experiment in a line: In vitro detection of focal demyelination, LPC rat model. As to conditions: LPC-induced focal demyelination, rat brain sections. The series is classed as binding. As to the method:
Sprague-Dawley female rats (220-250 g, 8 weeks old) were anesthetized and positioned in a stereotaxic frame (Stoelting). A small incision was made in the scalp, and the corpus callosum was targeted using the following stereotaxic coordinates, relative to bregma: anterior-posterior, 0.0 mm; medial-lateral, 2.0 mm; and dorsal-ventral, 3.4 mm. A small hole was drilled in the skull, and a 26S-gauge needle attached to a 10 μL Hamilton Syringe was lowered into the corpus callosum according to the dorsal-ventral coordinate. A microinjector pump (Stoelting) controlled the infusion of 6 μL of lysolecithin (LPC, 0.1% in saline) at a rate of 0.25 μL/min, after which the needle was left in place for 2 min in order to prevent liquid reflux out of the brain parenchyma. The incision was then closed using 5-0 Ethicon sutures, and the animals were allowed to recover on a heating pad. After 5-7 days, the animals were ready for study.
Five days after surgery, the rats were anesthetized and perfused with saline followed by 4% PFA. […] Sections were then examined under a microscope (Leica DM4000B, Leica Microsystem Inc., Buffalo Grove, Ill., USA) equipped for fluorescence (DFC7000T), and images of the stained mouse whole brain sections were acquired with the same exposure time. […]

For series [2], the system named is myelin. The experiment in a line: In situ staining after tail vein injection (Example 2). The format is in vivo, mouse. As to conditions: 1.0 mg (50 mg/kg) tail vein, WT mice, 1 h. As to the method:
Wild-type mice were administered the newly synthesized compounds (40 mg/kg) via tail vein injection, and 30-60 min later the mice were perfused transcardially with saline followed by 4% PFA in PBS. Brains and spinal cords were then removed, postfixed by immersion in 4% PFA overnight, dehydrated in 30% sucrose solution, cryostat sectioned at 100 μm, mounted on superfrost slides, and images were acquired directly using a Leica fluorescent microscope.
Following the in vitro studies, we then investigated the ability of compound 21 to readily enter the brain and bind to myelin in situ. A dose of 1.0 mg of compound 21 (50 mg/kg) was administered via the tail vein to wild-type (WT) mice. One hour after injection, the mice were perfused with saline followed by 4% paraformaldehyde (PFA) and the brain and spinal cord were removed and sectioned. The distribution of compound 21 was then directly examined under a fluorescent microscope.

Series [3] has as its system myelin. The series is described as follows: In vitro tissue staining and fluorescent intensity ratio, mouse brain sections (Example 1). The series is classed as binding. The conditions noted are these: 1 mM staining solution, 25 min. As to the method:
Wild-type mice (20-22 g, 8 weeks old) were deeply anesthetized and perfused transcardially with precooled saline (4° C., 10 mL/min for 1 min followed by 7 mL/min for 6 min) followed by fixation with precooled 4% PFA in PBS (4° C., 10 mL/min for 1 min followed by 7 mL/min for 6 min). Brain tissues were then removed, postfixed by immersion in 4% PFA overnight, dehydrated in 10%, 20%, and 30% sucrose solution, embedded in a freezing compound (OCT, Fisher Scientific, Suwanee, Ga.), and sectioned at […] with a cryostat (Thermo HM525, Thermo Fisher Scientific Inc., Chicago, Ill., USA). […] Sections were then examined under a microscope (Leica DM4000B, Leica Microsystem Inc., Buffalo Grove, Ill., USA) equipped for fluorescence (DFC7000T), and images of the stained mouse whole brain sections were acquired with the same exposure time. ImageJ software was then used to quantify pixel intensity values on 6 sections of each tested compound. […] Images were analyzed by two experienced individuals. The FIR of white matter to gray matter were then calculated.
In vitro Staining and Assay of the Fluorescent Intensity. […] Next, we selected a representative region in the genus of the corpus callosum (gcc) and a representative region in the subcortical gray matter (cortex) and calculated the fluorescent intensity ratio (FIR) between both regions (FIG. 2A). […]

For series [4], the system named is myelin. The experiment in a line: In situ autoradiography of mouse brain (Example 2). The format is in vivo. The conditions noted are these: mouse brain coronal sections. As to the method: Wild-type mice were euthanized at 30 min post iv injection of [^18F]21 (111 MBq, 3.0 mCi). The brains were rapidly removed, placed in OCT embedding medium, and frozen at −20° C. After reaching equilibrium at this temperature, the brains were coronally sectioned at 60 μm on a cryostat and mounted on superfrost slides. After drying by air at room temperature, the slides were put in a cassette and exposed for 20 min to film to obtain images.
To validate the PET results and confirm that the PET signals were indeed from specific binding to myelin, we conducted ex vivo autoradiography in the mouse brain following administration of [^18F]21 through tail vein injections. After 1 h, the mouse brain was dissected for coronal tissue sectioning. […] Thus, combination of in situ autoradiography and PET imaging confirmed that [^18F]21 binds specifically to myelin in vivo.

In series [5] the test system is myelin. The series is described as follows: Quantitative microPET/CT imaging in WT rats (Example 2). The format is in vivo, rat. The protocol: (§1) For better anatomic localization, CT coregistration was applied.
Following radiosynthesis, the pharmacokinetic profile of [^18F]21 was fully characterized by quantitative microPET/CT imaging in WT rats (n=3). […] The brain radioactivity peaked at 3 min postinjection followed by rapid clearance before reaching a plateau at 40-60 min postinjection.

Series [6] has as its system myelin. The series is described as follows: Quantitative microPET/CT imaging of spinal cord, rat SCI model. The series is classed as in vivo. As to the method: Sprague-Dawley female rats (220-250 g, 8 weeks old) were anesthetized and a restricted laminectomy was conducted to expose the dorsal surface of T13. The vertebral column between T12 and L1 was then stabilized with clamps and forceps fixed to the base of an Infinite Horizon impact device. The midpoint of T13 was impacted with a force of 250 kDyn using a 2.5 mm stainless steel impactor tip, which was used to induce a moderately severe contusive injury to the spinal cord. The musculature was then sutured over the laminectomy site and the skin closed with wound clips followed by subsequent treatment with Marcaine at the incision site. The force/displacement graph was used to monitor impact consistency. After surgery, the animals were carefully monitored daily for pain and body weight with manual bladder expression 2-3 times daily to stimulate reflex voiding until the animals could urinate independently.
as §1
So far, imaging of the spinal cord remains a great challenge. […] Next, we asked whether [18F]21 PET is capable of in vivo imaging of myelin deficiency or myelin damage in living animal models. We conducted [^18F]21-PET imaging in a rat model of thoracic contusive SCI. In this model, the contusion was made at T13 to introduce demyelination. In vivo [^18F]21 PET imaging was performed before (as a baseline scan) and 1 day after contusion. The uptake of [^18F]21 in every spine segment was then normalized to the average spine uptake. […] After microPET/CT imaging, we conducted in situ histological staining of the spinal cord 60 min after injection of nonlabeled compound 21 through the tail vein.

For series [7], the system named is myelin. The series is described as follows: Quantitative microPET/CT imaging in Shiverer and WT mice. The series is classed as in vivo, mouse. As to conditions: SUVs from 40 to 60 min. As to the method: as §1
To further evaluate the in vivo binding specificity of [^18F]21, we investigated the pharmacokinetic profiles of [^18F] 21 in a Shiverer mouse model that is deficient in myelin in the brain. Thus, the pharmacokinetic profiles of [^18F]21 were quantitatively compared between Shiverer mice (C3Fe.SWV-Mbpshi/J, n=2) and age-matched WT mice (CB57J, n=2).
Dynamic emission scans were acquired for 60 min in 3D list mode immediately after [^18F]21 (0.3 mCi each mouse, 11.1 MBq) was administered. The brain uptake of [^18F]21 was lower in the Shiverer brain than in the WT littermates (1.25 vs 1.64). After the brain concentration of [^18F]21 reached a plateau, the SUVs from 40 to 60 min were summarized and compared.

On to `CNc1ccc(/C=C/c2ccc(NCc3cn(CCF)nn3)cc2)cc1` [Compound 21, (E)-N-((1-(2-Fluoroethyl)-1H-1,2,3-triazol-4-yl)methyl)-4-(4-(methylamino)styryl)aniline], for which, in the series with myelin [1], the “detection of demyelinated lesion by fluorescent staining” value was “capable of detecting the demyelinated focal lesion by fluorescent staining”. The “brain and spinal cord entry and myelin binding in situ” value with myelin [2] is “readily entered the brain and spinal cord and localized in all the myelinated regions in proportion to the myelin content”; in the series with myelin [2] (listed as TAFDAS), “readily penetrates the BBB and binds to myelin membranes in the brain and spinal cord”.
Regarding `CNc1ccc(/C=C/c2ccc(N)c(OCCF)c2)cc1` [Compound 32, (E)-4-(4-Amino-3-(2-fluoroethoxy)styryl)-N-methylaniline], the “fluorescent intensity ratio (FIR) white matter (gcc) vs gray matter (cortex)” value in the series on myelin [3] was over 2.
For the compound `CC(C)Nc1ccc(/C=C/c2ccc(N)c(OCCF)c2)cc1` [Compound 35, (E)-4-(4-Amino-3-(2-fluoroethoxy)styryl)-N-isopropylaniline], the “fluorescent intensity ratio (FIR) white matter (gcc) vs gray matter (cortex)” value with myelin [3] is on record as over 2.
As to `CNc1ccc(/C=C/c2ccc(NCc3cn(CC[18F])nn3)cc2)cc1` [[^18F]21], in the series on myelin [4], the “labeling in ex vivo autoradiography” value is “distinctly labeled the corpus callosum”. Further, the “uptake in the brain” value in the series with myelin [5] is “high uptake in the brain”. The “time of peak brain radioactivity” value in the series on myelin [5] (postinjection) is 3 min. Further, the “uptake at L1 normalized to average spine uptake” value in the series with myelin [6] (1 day post-T13 contusion) is 1.08; with myelin [6] (before contusion (baseline)), 1.05. Also, the “uptake at T12 normalized to average spine uptake” value with myelin [6] (1 day post-T13 contusion) and with myelin [6] (before contusion (baseline)) was 0.99 each time. For the same compound, the entries for the “uptake at T13 normalized to average spine uptake” value in the series on myelin [6] (1 day post-T13 contusion (SCI group)) and with myelin [6] (before contusion (baseline)) were 0.81 and 1.02, respectively. Further, the “uptake at 40-60 min, Shiverer vs control” value in the series on myelin [7] was “significantly decreased compared to the control mouse brain”.
